Test results from publication PMC10793205, “Differential transmetallation of complexes of the anti-cancer thiosemicarbazone, Dp4e4mT: effects on anti-proliferative efficacy, redox activity, oxy-myoglobin and oxy-hemoglobin oxidation” (Chemical Science, 2023).

How the values were obtained:
AsPC-1 cells = assay: MTT cellular proliferation assay, AsPC-1 pancreatic adenocarcinoma cells; type: cell-based, human; details: for IC50: 37 °C, MTT, mean ± SD (3 experiments); for Therapeutic index AsPC-1: IC50 of MRC-5 cells/IC50 of AsPC-1 cells, 72 h/37 °C
Method: (§1) The anti-proliferative activity of Dp4e4mT relative to its complexes with Fe(III), Co(III), Ni(II), Cu(II), Zn(II), Ga(III), and Pd(II) was examined over incubation periods of 24-, 48-, and 72 h/37 °C (Table 2). These studies were performed using human SK-N-MC neuroepithelioma and AsPC-1 pancreatic adenocarcinoma cells that we have previously examined to assay other ligands.[15,28,43] […]
(§2) All cell lines were procured from the American Type Culture Collection (ATCC; Manassas, VA). The SK-N-MC neuroepithelioma cell line and the mortal MRC-5 fibroblasts were cultured in minimum essential medium (Sigma-Aldrich), while the AsPC-1 cell line was cultured in Roswell Park Memorial Institute 1640 medium (Thermo Fisher Scientific, MA, USA). Both media were supplemented with 10% fetal calf serum, non-essential amino acids (1 mM), sodium pyruvate (1 mM), L-glutamine (2 mM), penicillin (100 U/mL), streptomycin (100 U/mL), and Fungizone (0.5 µg/mL). Cells were maintained at 37 °C in an incubator under a humidified atmosphere with 5% CO 2, following established protocols. 11 Cellular Proliferation Assay
(§3) Cellular proliferation was evaluated through the established 3-(4,5-dimethylthiazol-2-yl)-2,5-diphenyltetrazolium bromide (MTT) proliferation assay, validated by viable cell counts.12 […]
(§4) Ligands and complexes were dissolved in DMSO to make a stock solution of 10 mM, subsequently diluted in culture media. For cell culture experiments, the DMSO's maximum concentration remained below 0.5% (v/v), with no discernible impact on proliferation.12 MTT […]
(§5) Trypan blue staining.12 Analysis of the data was executed employing MARS Data Analysis Software (BMG LabTech; version 3.30). The concentration of agents necessary to inhibit cellular proliferation by 50% (IC 50) was then calculated. […]

[1] = target: T1, oxy-Hb in intact human erythrocytes (Homo sapiens, UniProt P68871+P69905); assay: Oxidation of oxy-Hb in intact human erythrocytes; type: cell-based; details: 10 μM, 3 h/37 °C
T1 construct: Physiologically, oxy-Hb is found in erythrocytes; endogenous in cells; host or cells: intact human erythrocytes from fresh blood of healthy donors
T1 sequence (P69905 2-142 limits assumed): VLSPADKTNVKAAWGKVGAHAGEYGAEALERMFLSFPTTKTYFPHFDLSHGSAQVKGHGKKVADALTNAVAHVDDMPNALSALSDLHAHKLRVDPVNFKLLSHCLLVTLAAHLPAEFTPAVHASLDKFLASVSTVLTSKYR
T1 sequence (P68871 2-147 limits assumed): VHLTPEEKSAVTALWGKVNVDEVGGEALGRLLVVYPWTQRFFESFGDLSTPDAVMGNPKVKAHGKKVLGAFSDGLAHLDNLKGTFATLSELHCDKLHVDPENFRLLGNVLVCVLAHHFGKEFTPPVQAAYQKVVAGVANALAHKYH
Method: Fig. 7 (A and B) Investigation of the effects of Dp4e4mT and its Fe(III), Co(III), Ni(II), Cu(II), Zn(II), Ga(III), and Pd(II) complexes versus DFO, Dp44mT, DpC and their Fe(III) complexes (10 μM) on met-Hb generation (% zero time) after an incubation of 1–3 h/20 °C with purified oxy-Hb (40 μM). (C) Investigation of the effects of Dp4e4mT and its Fe(III), Co(III), Ni(II), Cu(II), Zn(II), Ga(III), or Pd(II) complexes relative to the positive controls DFO, Dp44mT, DpC, and their Fe(III) complexes (10 μM) on oxy-Hb oxidation in intact human erythrocytes after a 3 h/37 °C incubation. Results are mean ± SD (3 experiments).
Physiologically, oxy-Hb is found in erythrocytes, and in the current investigation, the ligands and complexes (10 μM) were incubated with intact human erythrocytes for 3 h/37 °C to assess their effects on oxy-Hb oxidation (Fig. 7C). As expected from our previous studies,[28,39] […]
In experiments examining the activity of the agents, all complexes were dissolved in 1,2-propanediol, then diluted to 10 µM in PBS (pH 7.2). […]
1800; Shimadzu, Kyoto, Japan). Concentrations of met-Mb and met-Hb, as well as reduced-Mb and reduced-Hb, were determined at 409 nm and 435 nm, respectively. Concentrations of oxy-Mb and oxy-Hb were determined at 544 nm and 582 nm, respectively. 17 Oxidation of Oxy-Hb in Human Erythrocytes
Oxidation of oxy-Hb in human erythrocytes was performed by standard methods using fresh blood from healthy donors after collection in Vacutainer® collection tubes (BD, Plymouth, UK).8 Erythrocytes centrifuged (480 xg/5 min/4°C) and then washed in HBSS, and subsequently resuspended in this buffer. Incubation of the erythrocytes (15% hematocrit) in the absence or presence of the agents (10 μM) was performed for 3 h/37°C. The erythrocytes were […]

SK-N-MC cells = assay: MTT cellular proliferation assay, SK-N-MC neuroepithelioma cells; type: cell-based, human; details: for IC50: SK-N-MC, 37 °C, MTT, mean ± SD (3 experiments); for Therapeutic index SK-N-MC: IC50 of MRC-5 cells/IC50 of SK-N-MC cells, 72 h/37 °C
Method: as §1, §2, §3, §4, §5

MRC-5 fibroblasts = assay: MTT cellular proliferation assay, mortal MRC-5 fibroblasts; type: cell-based; details: 37 °C, mean ± SD (3 experiments)
Method: (§6) To examine the selectivity of the Dp4e4mT complexes against neoplastic versus normal mortal cells, their anti-proliferative efficacy was compared to mortal MRC-5 fibroblasts after a 72 h/37 °C incubation (Table 3). […] To further examine selectivity, an in vitro therapeutic index was calculated as per our previous investigations.[28,57,59,66,67] This parameter is derived from the ratio of the IC50 of MRC-5 cells/IC50 of SK-N-MC or AsPC-1 cells; with high ratios indicating greater selective anti-proliferative activity against neoplastic cells (Table 3). The mean therapeutic index is the average of the therapeutic indices calculated for both tumor cell-types. […] The mean therapeutic index of Dp4e4mT exceeded that obtained for clinically trialed DpC (157), as well as that of Dp44mT (112) and DFO (6). […]
as §2, §3, §4, §5

SK-N-MC and AsPC-1 cells = assay: MTT cellular proliferation assay, values stated over both tumor cell-types; type: cell-based, human; details: for Mean therapeutic index: average of the therapeutic indices for SK-N-MC and AsPC-1 vs MRC-5, 72 h/37 °C
Method: The anti-proliferative activity of Dp4e4mT relative to its complexes with Fe(III), Co(III), Ni(II), Cu(II), Zn(II), Ga(III), and Pd(II) was examined over incubation periods of 24-, 48-, and 72 h/37 °C (Table 2). These studies were performed using human SK-N-MC neuroepithelioma and AsPC-1 pancreatic adenocarcinoma cells that we have previously examined to assay other ligands.[15,28,43]
as §6, §2, §3, §4, §5

SMILES	IC50 (AsPC-1 cells; Homo sapiens, ASPC1, AsPC-1, 24 h) [µM]	IC50 (AsPC-1 cells; Homo sapiens, ASPC1, AsPC-1, 48 h) [µM]	IC50 (AsPC-1 cells; Homo sapiens, ASPC1, AsPC-1, 72 h) [µM]	Therapeutic index AsPC-1 (AsPC-1 cells)	oxy-Hb oxidation in erythrocytes versus the control (in words) [1]	IC50 (SK-N-MC cells; Homo sapiens, 24 h) [µM]	IC50 (SK-N-MC cells; Homo sapiens, 48 h) [µM]	IC50 (SK-N-MC cells; Homo sapiens, 72 h) [µM]	Therapeutic index SK-N-MC (SK-N-MC cells)	IC50 (MRC-5 fibroblasts; Homo sapiens, MRC5, MRC-5, 72 h) [µM]	IC50 (SK-N-MC and AsPC-1 cells; Homo sapiens, SK-N-MC and AsPC-1, after 72 h, read-out: IC50 (range over both cell-types)) [µM]	Mean therapeutic index (SK-N-MC and AsPC-1 cells)	IC50 (AsPC-1 cells; AsPC-1, 24 h) [µM]	IC50 (AsPC-1 cells; AsPC-1, 48 h) [µM]	IC50 (AsPC-1 cells; AsPC-1, 72 h) [µM]	IC50 (SK-N-MC cells; 24 h) [µM]	IC50 (SK-N-MC cells; 48 h) [µM]	IC50 (SK-N-MC cells; 72 h) [µM]	IC50 (MRC-5 fibroblasts; MRC-5, 72 h) [µM]
CC(=O)N(O)CCCCCNC(=O)CCC(=O)N(O)CCCCCNC(=O)CCC(=O)N(O)CCCCCN [DFO, desferrioxamine, reference compound]	> 100	22.76 ± 0.084	3.07 ± 0.585	9	did not induce any significant (p > 0.05) increase in oxy-Hb oxidation	> 100	45.27 ± 0.061	8.18 ± 2.46	3	28.91 ± 0.101	3.07 to 8.18	6							
CCN(C)C([S-])=NN=C(c1ccccn1)c1ccccn1.CCN(C)C([S-])=NN=C(c1ccccn1)c1ccccn1.[Cu+2] [[Cu(Dp4e4mT)2]]				113	negligible effects on oxy-Hb oxidation				85			99	1.14 ± 0.034	0.044 ± 0.007	0.003 ± 0.003	0.516 ± 0.006	0.034 ± 0.006	0.004 ± 0.001	0.342 ± 0.121
